According to ChEMBL document CHEMBL2169754, “Imidazo[1,2-a]pyridines That Directly Interact with Hepatitis C NS4B: Initial Preclinical Characterization” (ACS Med Chem Lett, 2012):

Columns and labels:
Hepatitis C virus [1] = test: Displacement of [3H]-3-(1-(3-chloro-6-isopropyl-8-(trifluoromethyl)imidazo[1,2-a]pyridine-2-carbonyl)piperidin-4-yl)oxazolidin-2-one from HCV genotype 1b His6-tagged NS4B expressed in baculovirus infected Sf9 cells after overnight incubation; parameters: species or system Hepatitis C virus subtype 1b
Hepatitis C virus [2] = test: Antiviral activity against wild type HCV genotype 1b infected in human HuH7 cells after 48 hrs by luciferase reporter gene assay; assay type: functional, organism-based, Hepacivirus hominis; settings: Huh-7, 48 h
Hepatitis C virus [3] = test: Antiviral activity against wild type HCV genotype 1a infected in human HuH7 cells after 48 hrs by luciferase reporter gene assay; assay type: functional, organism-based, Hepacivirus hominis; settings: subtype 1a, Huh-7, 48 h
[4] = Solubility of the compound; assay type: physicochemical
[5] = AUC (0 to 24 hrs) in Sprague-Dawley rat at 5 mg/kg, po; assay type: ADME, organism-based; parameters: time < 24 hr, dose 5 mg/kg, route oral; settings: plasma
[6] = Volume of distribution at steady state in Sprague-Dawley rat at 1 mg/kg, iv; assay type: ADME, organism-based; parameters: dose 1 mg/kg, route intravenous; settings: in vivo, read-out: Vdss
Cytochrome P450 3A4 = Cytochrome P450 3A4 (Homo sapiens, UniProt P08684); test: Inhibition of CYP3A4 in human liver microsomes after 7 mins by LC/MS/MS analysis; assay type: ADME, Microsome
Cytochrome P450 1A2 = target: T1, Cytochrome P450 1A2 (Homo sapiens, UniProt P05177); test: Inhibition of CYP1A2 in human liver microsomes after 10 mins by LC/MS/MS analysis; assay type: ADME, Microsome
T1 sequence (P05177 whole entry): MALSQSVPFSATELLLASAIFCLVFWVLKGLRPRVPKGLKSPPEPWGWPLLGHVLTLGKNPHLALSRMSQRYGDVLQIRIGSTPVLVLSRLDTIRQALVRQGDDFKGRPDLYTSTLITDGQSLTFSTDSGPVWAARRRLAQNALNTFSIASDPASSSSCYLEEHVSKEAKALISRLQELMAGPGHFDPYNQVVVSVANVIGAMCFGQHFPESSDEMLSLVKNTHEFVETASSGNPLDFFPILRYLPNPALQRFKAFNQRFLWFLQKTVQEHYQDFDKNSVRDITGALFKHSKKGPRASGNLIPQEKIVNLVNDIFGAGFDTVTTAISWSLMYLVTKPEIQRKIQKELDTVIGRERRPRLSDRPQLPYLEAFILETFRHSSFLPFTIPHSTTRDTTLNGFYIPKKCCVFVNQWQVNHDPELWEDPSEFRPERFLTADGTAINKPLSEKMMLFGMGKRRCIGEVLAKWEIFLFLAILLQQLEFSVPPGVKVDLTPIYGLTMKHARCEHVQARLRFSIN

[7] = Clearance in Sprague-Dawley rat at 1 mg/kg, iv; assay type: ADME, organism-based; parameters: dose 1 mg/kg, route intravenous; settings: in vivo
Liver microsomes [8] = test: Drug metabolism in rat liver microsomes assessed as reactive metabolite formation at 10 uM after 30 mins by glutathione trapping assay; assay type: ADME, Microsome; settings: 0.5 h
Cytochrome P450 2D6 = Cytochrome P450 2D6 (Homo sapiens, UniProt P10635); test: Inhibition of CYP2D6 in human liver microsomes after 10 mins by LC/MS/MS analysis; assay type: ADME, Microsome
Liver microsomes [9] = test: Drug metabolism in human liver microsomes assessed as reactive metabolite formation at 10 uM after 30 mins by glutathione trapping assay; assay type: ADME, Microsome; settings: 0.5 h
Cytochrome P450 2C9 = Cytochrome P450 2C9 (Homo sapiens, UniProt P11712); test: Inhibition of CYP2C9 in human liver microsomes after 10 mins by LC/MS/MS analysis; assay type: ADME, Microsome
Cytochrome P450 2C19 = Cytochrome P450 2C19 (Homo sapiens, UniProt P33261); test: Inhibition of CYP2C19 in human liver microsomes after 10 mins by LC/MS/MS analysis; assay type: ADME, Microsome
[10] = Half life in Sprague-Dawley rat at 5 mg/kg, po; assay type: ADME, organism-based; parameters: dose 5 mg/kg, route oral; settings: in vivo
[11] = Oral bioavailability in Sprague-Dawley rat at 5 mg/kg; assay type: ADME, organism-based; settings: in vivo
Hepatitis C virus [12] = test: Binding affinity to HCV genotype 1b His6-tagged NS4B expressed in baculovirus infected Sf9 cells after overnight incubation; settings: Hepatitis C virus subtype 1b, tested as the 3H-labelled form
[13] = Volume of distribution at steady state in beagle dog at 1 mg/kg, iv; assay type: ADME, organism-based, Canis lupus familiaris; parameters: dose 1 mg/kg, route intravenous; settings: in vivo, read-out: Vdss
Hepatitis C virus [14] = test: Antiviral activity against HCV genotype 1b expressing NS4B H94N mutant stably infected in human HuH7 cells after 48 hrs by luciferase reporter gene assay; assay type: functional, organism-based, Hepacivirus hominis; settings: Huh-7, 48 h
Hepatitis C virus [15] = test: Antiviral activity against HCV genotype 1b expressing NS5B M414T mutant transiently infected in human HuH7 cells after 48 hrs by luciferase reporter gene assay; assay type: functional, organism-based, Hepacivirus hominis; settings: Huh-7, 48 h
[16] = Oral bioavailability in beagle dog at 5 mg/kg; assay type: ADME, organism-based, Canis lupus familiaris; settings: in vivo
Hepatitis C virus [17] = test: Ratio of EC50 for HCV genotype 1b expressing NS4B V105N mutant to EC50 for wild type HCV genotype 1b; assay type: functional, Hepacivirus hominis
Hepatitis C virus [18] = test: Antiviral activity against HCV genotype 1b expressing NS4B H94R mutant transiently infected in human HuH7 cells after 48 hrs by luciferase reporter gene assay; assay type: functional, organism-based, Hepacivirus hominis; settings: Huh-7, 48 h
Hepatitis C virus [19] = test: Antiviral activity against HCV genotype 1b expressing NS3 A156T mutant transiently infected in human HuH7 cells after 48 hrs by luciferase reporter gene assay; assay type: functional, organism-based, Hepacivirus hominis; settings: Huh-7, 48 h
Hepatitis C virus [20] = test: Antiviral activity against HCV genotype 1b expressing NS5A L31V mutant transiently infected in human HuH7 cells after 48 hrs by luciferase reporter gene assay; assay type: functional, organism-based, Hepacivirus hominis; settings: Huh-7, 48 h
Hepatitis C virus [21] = test: Ratio of EC50 for HCV genotype 1b expressing NS4B H94N mutant to EC50 for wild type HCV genotype 1b; assay type: functional, Hepacivirus hominis
[22] = AUC (0 to 24 hrs) in beagle dog at 5 mg/kg, po; assay type: ADME, organism-based, Canis lupus familiaris; parameters: time < 24 hr, dose 5 mg/kg, route oral; settings: plasma
Hepatitis C virus [23] = test: Antiviral activity against HCV genotype 1b expressing NS4B V105M mutant stably infected in human HuH7 cells after 48 hrs by luciferase reporter gene assay; assay type: functional, organism-based, Hepacivirus hominis; settings: Huh-7, 48 h
[24] = Half life in beagle dog at 5 mg/kg, po; assay type: ADME, organism-based, Canis lupus familiaris; parameters: dose 5 mg/kg, route oral; settings: in vivo
[25] = Clearance in beagle dog at 1 mg/kg, iv; assay type: ADME, organism-based, Canis lupus familiaris; parameters: dose 1 mg/kg, route intravenous; settings: in vivo
Hepatitis C virus [26] = test: Antiviral activity against HCV genotype 1b expressing NS4B V105L mutant transiently infected in human HuH7 cells after 48 hrs by luciferase reporter gene assay; assay type: functional, organism-based, Hepacivirus hominis; settings: Huh-7, 48 h
Hepatitis C virus [27] = test: Antiviral activity against HCV genotype 1b expressing NS4B F98L mutant transiently infected in human HuH7 cells after 48 hrs by luciferase reporter gene assay; assay type: functional, organism-based, Hepacivirus hominis; settings: Huh-7, 48 h

Sequence of Cytochrome P450 2C9 (P11712 whole entry): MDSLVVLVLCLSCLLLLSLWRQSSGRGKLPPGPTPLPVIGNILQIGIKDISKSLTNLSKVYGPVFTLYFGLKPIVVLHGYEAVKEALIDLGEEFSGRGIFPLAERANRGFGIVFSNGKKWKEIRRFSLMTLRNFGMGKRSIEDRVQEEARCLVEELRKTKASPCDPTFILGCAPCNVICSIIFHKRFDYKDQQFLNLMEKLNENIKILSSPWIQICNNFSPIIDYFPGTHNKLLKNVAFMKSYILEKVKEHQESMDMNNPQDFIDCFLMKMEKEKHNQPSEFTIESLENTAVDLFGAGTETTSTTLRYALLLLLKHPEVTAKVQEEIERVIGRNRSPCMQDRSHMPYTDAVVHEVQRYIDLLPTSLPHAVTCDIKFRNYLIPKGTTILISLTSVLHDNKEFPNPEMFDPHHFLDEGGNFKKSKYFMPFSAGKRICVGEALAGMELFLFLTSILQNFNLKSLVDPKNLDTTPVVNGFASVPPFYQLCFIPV
Sequence of Cytochrome P450 2C19 (P33261 whole entry): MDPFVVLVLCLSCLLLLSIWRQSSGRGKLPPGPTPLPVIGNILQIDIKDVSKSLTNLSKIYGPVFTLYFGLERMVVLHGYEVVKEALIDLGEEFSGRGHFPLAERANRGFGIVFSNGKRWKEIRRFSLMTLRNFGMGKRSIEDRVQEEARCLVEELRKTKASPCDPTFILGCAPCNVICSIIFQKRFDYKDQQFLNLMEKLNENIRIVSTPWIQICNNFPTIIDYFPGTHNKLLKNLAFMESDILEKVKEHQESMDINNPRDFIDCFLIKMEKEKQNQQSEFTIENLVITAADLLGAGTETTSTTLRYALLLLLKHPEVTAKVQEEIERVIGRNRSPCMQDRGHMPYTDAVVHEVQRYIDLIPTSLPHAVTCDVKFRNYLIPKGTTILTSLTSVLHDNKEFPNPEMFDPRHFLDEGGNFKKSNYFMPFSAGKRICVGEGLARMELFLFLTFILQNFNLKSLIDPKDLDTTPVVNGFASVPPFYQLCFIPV
Sequence of Cytochrome P450 3A4 (P08684 whole entry): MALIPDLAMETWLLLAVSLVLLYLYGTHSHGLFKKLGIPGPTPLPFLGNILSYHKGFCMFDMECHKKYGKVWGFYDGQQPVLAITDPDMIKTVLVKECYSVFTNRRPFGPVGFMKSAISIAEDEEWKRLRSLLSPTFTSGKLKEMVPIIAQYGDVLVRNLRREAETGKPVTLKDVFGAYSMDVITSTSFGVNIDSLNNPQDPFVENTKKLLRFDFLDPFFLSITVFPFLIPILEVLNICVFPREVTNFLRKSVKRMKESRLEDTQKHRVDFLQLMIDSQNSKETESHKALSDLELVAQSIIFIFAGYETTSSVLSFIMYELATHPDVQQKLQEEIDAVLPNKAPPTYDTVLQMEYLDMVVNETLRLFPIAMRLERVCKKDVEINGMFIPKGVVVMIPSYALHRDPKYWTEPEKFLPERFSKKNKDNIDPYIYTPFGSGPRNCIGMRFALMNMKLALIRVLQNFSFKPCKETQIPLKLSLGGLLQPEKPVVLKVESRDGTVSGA
Sequence of Cytochrome P450 2D6 (P10635 whole entry): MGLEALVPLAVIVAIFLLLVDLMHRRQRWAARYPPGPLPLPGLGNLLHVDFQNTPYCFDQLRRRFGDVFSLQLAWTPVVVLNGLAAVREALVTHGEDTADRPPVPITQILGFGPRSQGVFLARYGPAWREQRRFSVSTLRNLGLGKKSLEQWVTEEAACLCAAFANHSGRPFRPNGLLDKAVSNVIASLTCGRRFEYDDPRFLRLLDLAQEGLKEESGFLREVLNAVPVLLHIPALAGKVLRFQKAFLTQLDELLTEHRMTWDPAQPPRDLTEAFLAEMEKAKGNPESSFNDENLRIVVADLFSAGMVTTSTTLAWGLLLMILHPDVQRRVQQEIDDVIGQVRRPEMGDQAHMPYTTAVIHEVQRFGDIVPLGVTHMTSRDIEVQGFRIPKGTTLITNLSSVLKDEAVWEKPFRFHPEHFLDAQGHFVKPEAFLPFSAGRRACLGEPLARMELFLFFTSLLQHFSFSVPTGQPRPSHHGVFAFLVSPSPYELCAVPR

Compound: O=C(c1nc2c(C(F)(F)F)cc(-c3ccoc3)cn2c1Cl)N1CCN([C@H]2CC[C@@H](O)CC2)C(=O)C1
- IC50 (Hepatitis C virus [1]): 250 nM
- EC50 (Hepatitis C virus [2]): 300 nM
- EC50 (Hepatitis C virus [3]): 150 nM
- solubility [4]: > 500 µM

Compound: O=C(c1nc2c(C(F)(F)F)cc(-c3ccoc3)cn2c1Cl)N1CCC(N2CCCC2)CC1
- IC50 (Hepatitis C virus [1]): > 50000 nM
- EC50 (Hepatitis C virus [2]): > 50000 nM
- EC50 (Hepatitis C virus [3]): > 50000 nM
- solubility [4]: > 500 µM

Compound: O=C(c1nc2c(C(F)(F)F)cc(-c3ccoc3)cn2c1Cl)N1CCC(c2cccs2)C1 (racemic)
- IC50 (Hepatitis C virus [1]): 12 nM
- EC50 (Hepatitis C virus [2]): 67 nM
- EC50 (Hepatitis C virus [3]): 770 nM
- solubility [4]: < 15 µM

Compound: CN1CCN(C(=O)c2nc3c(C(F)(F)F)cc(-c4ccoc4)cn3c2Cl)CC1=O
- IC50 (Hepatitis C virus [1]): 1200 nM
- EC50 (Hepatitis C virus [2]): 36000 nM
- EC50 (Hepatitis C virus [3]): 18000 nM
- solubility [4]: > 500 µM

Compound: O=C(c1nc2c(C(F)(F)F)cc(-c3ccoc3)cn2c1Cl)N1CCC(N2CCCC2=O)CC1
- IC50 (Hepatitis C virus [1]): 170 nM
- EC50 (Hepatitis C virus [2]): 90 nM
- EC50 (Hepatitis C virus [3]): 260 nM
- solubility [4]: > 500 µM

Compound: O=C(c1nc2c(C(F)(F)F)cc(-c3ccoc3)cn2c1Cl)N1CCC(N2CCOC2=O)CC1
- AUC(0-t) at 24 h [5]: 700 ng·h/mL
- Vd [6]: 2.5 L/kg
- inhibition (INH) (Cytochrome P450 3A4): Not Active
- inhibition (INH) (Cytochrome P450 1A2): Not Active
- IC50 (Hepatitis C virus [1]): 150 nM
- clearance [7]: 72 mL/min/kg
- EC50 (Hepatitis C virus [2]): 18 nM
- Drug metabolism (Liver microsomes [8]): Not Active
- inhibition (INH) (Cytochrome P450 2D6): Not Active
- EC50 (Hepatitis C virus [3]): 7.4 nM
- Drug metabolism (Liver microsomes [9]): Not Active
- solubility [4]: > 500 µM
- inhibition (INH) (Cytochrome P450 2C9): Not Active
- inhibition (INH) (Cytochrome P450 2C19): Not Active
- half-life [10]: 114 min
- bioavailability [11]: 60%

Compound: O=C(c1nc2c(C(F)(F)F)cc(-c3ccoc3)cn2c1Cl)N1CCN(c2ccccc2)C(=O)C1
- IC50 (Hepatitis C virus [1]): 24 nM
- EC50 (Hepatitis C virus [2]): 160 nM
- EC50 (Hepatitis C virus [3]): 430 nM

Compound: O=C(c1nc2c(C(F)(F)F)cc(-c3cn[nH]c3)cn2c1Br)N1CCC(c2cccs2)C1 (stereo unspecified)
- Kapp (Hepatitis C virus [12]): 76 nM
- EC50 (Hepatitis C virus [2]): < 55 nM
- EC50 (Hepatitis C virus [3]): < 55 nM

Compound: O=C(c1nc2c(C(F)(F)F)cc(-c3ccoc3)cn2c1Cl)N1CCN(c2ccccc2)CC1
- IC50 (Hepatitis C virus [1]): 20 nM
- EC50 (Hepatitis C virus [2]): 1600 nM
- EC50 (Hepatitis C virus [3]): 450 nM

Compound: O=C(c1nc2c(C(F)(F)F)cc(C3CC3)cn2c1Cl)N1CCN([C@H]2CC[C@H](O)CC2)C(=O)C1
- Vd [13]: 0.9 L/kg
- EC50 (Hepatitis C virus [14]): 200 nM
- AUC(0-t) at 24 h [5]: 3800 ng·h/mL
- Vd [6]: 4.1 L/kg
- EC50 (Hepatitis C virus [15]): 1 nM
- bioavailability [16]: 65%
- inhibition (INH) (Cytochrome P450 3A4): Not Active
- Ratio EC50 (Hepatitis C virus [17]): >100
- EC50 (Hepatitis C virus [18]): 53 nM
- EC50 (Hepatitis C virus [19]): 1 nM
- EC50 (Hepatitis C virus [20]): 1 nM
- inhibition (INH) (Cytochrome P450 1A2): Not Active
- Ratio EC50 (Hepatitis C virus [21]): >100
- IC50 (Hepatitis C virus [1]): 60 nM
- AUC(0-t) at 24 h [22]: 52000 ng·h/mL
- EC50 (Hepatitis C virus [23]): 800 nM
- clearance [7]: 20 mL/min/kg
- half-life [24]: 600 min
- clearance [25]: 1.1 mL/min/kg
- EC50 (Hepatitis C virus [2]): 5.4 nM
- Drug metabolism (Liver microsomes [8]): Not Active
- inhibition (INH) (Cytochrome P450 2D6): Not Active
- EC50 (Hepatitis C virus [26]): 38 nM
- EC50 (Hepatitis C virus [3]): 0.81 nM
- Drug metabolism (Liver microsomes [9]): Not Active
- solubility [4]: > 500 µM
- inhibition (INH) (Cytochrome P450 2C9): Not Active
- inhibition (INH) (Cytochrome P450 2C19): Not Active
- half-life [10]: 180 min
- EC50 (Hepatitis C virus [27]): 27 nM
- bioavailability [11]: 98%
